From article PMC11594329, “Development of LAT1-Selective Nuclear Medicine Therapeutics Using Astatine-211” (International Journal of Molecular Sciences, 2024)

Columns and labels:
[1] = Tissue distribution in ICR mice (normal animals); type: in vivo
Excerpt: (§1) ICR mice (male, 5 weeks old) were purchased from Japan SLC (Shizuoka, Japan) and acclimated for one week prior to use. The doses in the distribution experiments were as follows: ^211At-AAMT-O-Me-L (0.407 ± 0.005 MBq/mouse, 31.64 ± 0.76 g, n = 6), ^211At-AAMT-O-Me-D (0.351 ± 0.004 MBq/mouse, 31.44 ± 0.94 g, n = 6), ^211At-AAMT-O-Et-L (0.685 ± 0.010 MBq/mouse, 24.14 ± 3.31 g, n = 6), ^211At-AAMT-O-Pr-L (1.09 ± 0.06 MBq/mouse, 26.33 ± 0.39 g, n = 6)

PANC-1 tumor model = assay: Tissue distribution in nude mice (PANC-1 tumor model); type: in vivo, BALB/c nu/nu mice
Method in brief: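 Male 5-week-old BALB/c nu/nu mice bearing subcutaneous PANC-1 xenografts (1 × 10^7 cells/mouse with Matrigel), used once tumors exceeded 50 mm^3. Single doses of ^211At-labelled AAMT derivatives ranged from 135.08 ± 2.35 kBq to 0.927 ± 0.020 MBq per mouse, n = 3–6.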

[2] = Urinary and fecal excretion in ICR mice; type: in vivo
Experimental: Urinary excretion levels were also examined (Supplementary Table S1). Comparing the D-isomer and L isomer of ^211At-AAMT-O-Me from ICR mice, the D-isomer; 24.84 ± 13.03% ID, L-isomer; 33.69 ± 1.26% ID at 1 h after injection. D-isomer; 71.36 ± 4.67% ID, L-isomer; 23.99 ± 2.40% ID at 3 h after injection. From PANC-1 tumor bearing mice, D-isomer; 35.24 ± 8.70% ID, L-isomer; 20.40 ± 0.76% ID at 1 h after injection. D-isomer; 47.38 ± 3.19% ID, L-isomer; 3.23 ± 0.67% ID at 3 h after injection. In tumor-bearing models, the amount of excretion was smaller than that in normal mice. We have already reported that, in the presence of target cancer tissue for administered drugs, retention in the cancer tissue results in reduced excretion compared with normal animals. […] The same was also observed for feces, but very little was excreted in the feces. The results were as follows: from ICR mice, D-isomer; 0.06 ± 0.03% ID, L-isomer; 0.004 ± 0.003% ID at 1 h after injection. D-isomer; 0.02 ± 0.01% ID, L-isomer; 0.02 ± 0.01% ID at 3 h after injection. From PANC-1 tumor bearing mice, D-isomer; 0.25 ± 0.12% ID, L-isomer; 0.002 ± 0.001% ID at 1 h after injection. D-isomer; 0.75 ± 0.46% ID; L-isomer; 0.07 ± 0.03% ID at 3 h after injection.
as §1

[3] = nude mice (PANC-1 tumor model), 1 h after injection
[4] = nude mice (PANC-1 tumor model), 3 h after injection
[5] = nude mice (PANC-1 tumor model), 24 h after injection
[6] = nude mice (PANC-1 tumor model), after 24 h

SMILES: COc1ccc(C[C@](C)(N)C(=O)O)cc1[211At] [^211At-AAMT-O-Me-L, (S)-2-amino-3-(3-(astato-^211At)-4-methoxyphenyl)-2-methylpropanic acid]
- Tissue distribution, Bladder ([1]; 1 h after injection): 7.10 ± 1.15 %ID/g
- Tissue distribution, Blood ([1]; 1 h after injection): 1.57 ± 0.10 %ID/g
- Tissue distribution, Bone ([1]; 1 h after injection): 1.33 ± 0.16 %ID/g
- Tissue distribution, Brain ([1]; 1 h after injection): 0.32 ± 0.02 %ID/g
- Tissue distribution, Cecum ([1]; 1 h after injection): 0.85 ± 0.04 %ID/g
- Tissue distribution, Colon ([1]; 1 h after injection): 0.93 ± 0.13 %ID/g
- Tissue distribution, Heart ([1]; 1 h after injection): 2.01 ± 0.15 %ID/g
- Tissue distribution, Kidney ([1]; 1 h after injection): 2.47 ± 0.24 %ID/g
- Tissue distribution, Liver ([1]; 1 h after injection): 1.11 ± 0.10 %ID/g
- Tissue distribution, Lung ([1]; 1 h after injection): 6.42 ± 1.52 %ID/g
- Tissue distribution, Pancreas ([1]; 1 h after injection): 1.52 ± 0.17 %ID/g
- Tissue distribution, Salivary glands ([1]; 1 h after injection): 7.16 ± 1.54 %ID/g
- Tissue distribution, Small intestine ([1]; 1 h after injection): 1.82 ± 0.08 %ID/g
- Tissue distribution, Spleen ([1]; 1 h after injection): 5.01 ± 1.42 %ID/g
- Tissue distribution, Stomach ([1]; 1 h after injection): 13.65 ± 2.40 %ID/g
- Tissue distribution, Testis ([1]; 1 h after injection): 2.31 ± 0.04 %ID/g
- Tissue distribution, Thymus ([1]; 1 h after injection): 2.03 ± 0.50 %ID/g
- Tissue distribution, Thyroid ([1]; 1 h after injection): 13.12 ± 1.72 %ID/g
- Tissue distribution, Bladder ([1]; 3 h after injection): 0.10 ± 0.01 %ID/g
- Tissue distribution, Blood ([1]; 3 h after injection): 1.17 ± 0.24 %ID/g
- Tissue distribution, Bone ([1]; 3 h after injection): 0.53 ± 1.31 %ID/g
- Tissue distribution, Brain ([1]; 3 h after injection): 0.10 ± 0.02 %ID/g
- Tissue distribution, Cecum ([1]; 3 h after injection): 0.95 ± 0.11 %ID/g
- Tissue distribution, Colon ([1]; 3 h after injection): 0.80 ± 0.12 %ID/g
- Tissue distribution, Heart ([1]; 3 h after injection): 0.34 ± 0.02 %ID/g
- Tissue distribution, Kidney ([1]; 3 h after injection): 1.11 ± 0.15 %ID/g
- Tissue distribution, Liver ([1]; 3 h after injection): 2.57 ± 0.17 %ID/g
- Tissue distribution, Lung ([1]; 3 h after injection): 1.34 ± 0.32 %ID/g
- Tissue distribution, Pancreas ([1]; 3 h after injection): 0.19 ± 0.04 %ID/g
- Tissue distribution, Salivary glands ([1]; 3 h after injection): 1.77 ± 0.19 %ID/g
- Tissue distribution, Small intestine ([1]; 3 h after injection): 3.91 ± 0.20 %ID/g
- Tissue distribution, Spleen ([1]; 3 h after injection): 0.80 ± 0.19 %ID/g
- Tissue distribution, Stomach ([1]; 3 h after injection): 16.96 ± 1.89 %ID/g
- Tissue distribution, Testis ([1]; 3 h after injection): 0.52 ± 0.06 %ID/g
- Tissue distribution, Thymus ([1]; 3 h after injection): 0.14 ± 0.03 %ID/g
- Tissue distribution, Thyroid ([1]; 3 h after injection, listed as L-Isomer): 0.65 ± 0.16 %ID/g
- Tissue distribution, Bladder (PANC-1 tumor model; [3]): 0.06 ± 0.00 %ID/g
- Tissue distribution, Blood (PANC-1 tumor model; [3]): 7.85 ± 1.17 %ID/g
- Tissue distribution, Bone (PANC-1 tumor model; [3]): 0.68 ± 1.27 %ID/g
- Tissue distribution, Brain (PANC-1 tumor model; [3]): 0.46 ± 0.00 %ID/g
- Tissue distribution, Cecum (PANC-1 tumor model; [3]): 0.46 ± 0.05 %ID/g
- Tissue distribution, Colon (PANC-1 tumor model; [3]): 1.14 ± 0.27 %ID/g
- Tissue distribution, Heart (PANC-1 tumor model; [3]): 0.86 ± 0.04 %ID/g
- Tissue distribution, Kidney (PANC-1 tumor model; [3]): 3.56 ± 0.09 %ID/g
- Tissue distribution, Liver (PANC-1 tumor model; [3]): 4.92 ± 0.24 %ID/g
- Tissue distribution, Lung (PANC-1 tumor model; [3]): 5.16 ± 0.11 %ID/g
- Tissue distribution, Pancreas (PANC-1 tumor model; [3]): 0.58 ± 0.01 %ID/g
- Tissue distribution, Salivary glands (PANC-1 tumor model; [3]): 0.58 ± 0.05 %ID/g
- Tissue distribution, Small intestine (PANC-1 tumor model; [3]): 3.40 ± 0.36 %ID/g
- Tissue distribution, Spleen (PANC-1 tumor model; [3]): 4.34 ± 0.79 %ID/g
- Tissue distribution, Stomach (PANC-1 tumor model; [3]): 1.32 ± 0.06 %ID/g
- Tissue distribution, Testis (PANC-1 tumor model; [3]): 0.55 ± 0.02 %ID/g
- Tissue distribution, Thyroid (PANC-1 tumor model; [3]): 0.20 ± 0.02 %ID/g
- Tissue distribution, Tumor (PANC-1 tumor model; [3]): 7.83 ± 0.30 %ID/g
- Tissue distribution, Bladder (PANC-1 tumor model; [4]): 0.09 ± 0.01 %ID/g
- Tissue distribution, Blood (PANC-1 tumor model; [4]): 10.38 ± 2.28 %ID/g
- Tissue distribution, Bone (PANC-1 tumor model; [4]): 0.51 ± 1.35 %ID/g
- Tissue distribution, Brain (PANC-1 tumor model; [4]): 0.29 ± 0.01 %ID/g
- Tissue distribution, Cecum (PANC-1 tumor model; [4]): 0.43 ± 0.16 %ID/g
- Tissue distribution, Colon (PANC-1 tumor model; [4]): 0.68 ± 0.23 %ID/g
- Tissue distribution, Heart (PANC-1 tumor model; [4]): 0.76 ± 0.07 %ID/g
- Tissue distribution, Kidney (PANC-1 tumor model; [4]): 2.29 ± 0.07 %ID/g
- Tissue distribution, Liver (PANC-1 tumor model; [4]): 4.62 ± 0.20 %ID/g
- Tissue distribution, Lung (PANC-1 tumor model; [4]): 5.10 ± 0.42 %ID/g
- Tissue distribution, Pancreas (PANC-1 tumor model; [4]): 0.36 ± 0.10 %ID/g
- Tissue distribution, Salivary glands (PANC-1 tumor model; [4]): 0.78 ± 0.18 %ID/g
- Tissue distribution, Small intestine (PANC-1 tumor model; [4]): 2.50 ± 0.42 %ID/g
- Tissue distribution, Spleen (PANC-1 tumor model; [4]): 3.97 ± 0.59 %ID/g
- Tissue distribution, Stomach (PANC-1 tumor model; [4]): 1.31 ± 0.32 %ID/g
- Tissue distribution, Testis (PANC-1 tumor model; [4]): 0.55 ± 0.11 %ID/g
- Tissue distribution, Thyroid (PANC-1 tumor model; [4]): 0.23 ± 0.04 %ID/g
- Tissue distribution, Tumor (PANC-1 tumor model; [4]): 10.29 ± 0.88 %ID/g
- Tissue distribution, Bladder (PANC-1 tumor model; [5]): 0.55 ± 0.13 %ID/g
- Tissue distribution, Blood (PANC-1 tumor model; [5]): 0.88 ± 0.23 %ID/g
- Tissue distribution, Bone (PANC-1 tumor model; [5]): 0.75 ± 0.18 %ID/g
- Tissue distribution, Brain (PANC-1 tumor model; [5]): 0.13 ± 0.04 %ID/g
- Tissue distribution, Cecum (PANC-1 tumor model; [5]): 2.09 ± 0.41 %ID/g
- Tissue distribution, Colon (PANC-1 tumor model; [5]): 1.69 ± 0.15 %ID/g
- Tissue distribution, Heart (PANC-1 tumor model; [5]): 1.29 ± 0.42 %ID/g
- Tissue distribution, Kidney (PANC-1 tumor model; [5]): 1.67 ± 0.49 %ID/g
- Tissue distribution, Liver (PANC-1 tumor model; [5]): 0.92 ± 0.15 %ID/g
- Tissue distribution, Lung (PANC-1 tumor model; [5]): 4.43 ± 1.76 %ID/g
- Tissue distribution, Pancreas (PANC-1 tumor model; [5]): 0.59 ± 0.17 %ID/g
- Tissue distribution, Salivary glands (PANC-1 tumor model; [5]): 13.65 ± 5.31 %ID/g
- Tissue distribution, Small intestine (PANC-1 tumor model; [5]): 1.49 ± 0.29 %ID/g
- Tissue distribution, Spleen (PANC-1 tumor model; [5]): 3.12 ± 2.06 %ID/g
- Tissue distribution, Stomach (PANC-1 tumor model; [5]): 8.89 ± 2.65 %ID/g
- Tissue distribution, Testis (PANC-1 tumor model; [5]): 1.18 ± 0.25 %ID/g
- Tissue distribution, Thyroid (PANC-1 tumor model; [5]): 9.37 ± 3.33 %ID/g
- Tissue distribution, Tumor (PANC-1 tumor model; [5]): 1.86 ± 0.39 %ID/g
- Accumulation remaining in tumors relative to ^211At-AAMT-OH-L (PANC-1 tumor model; [6]): 2.6 times
- Blood intensity relative to ^211At-AAMT-OH-L (PANC-1 tumor model; [6]): 22 times
- Increase of blood intensity in tumor-bearing mice compared with normal animals (PANC-1 tumor model; tumor-bearing mice versus ICR mice): 5 fold
- Excretion in feces ([2]; 1 h after injection): 0.004 ± 0.003 % ID
- Urinary excretion ([2]; 1 h after injection): 33.69 ± 1.26 % ID
- Excretion in feces ([2]; 3 h after injection): 0.02 ± 0.01 % ID
- Urinary excretion ([2]; 3 h after injection): 23.99 ± 2.40 % ID
